The source of these data is patent publication US11753410B2, “Hormone receptor modulators for treating metabolic mutagenic and fibrotic conditions and disorders” (priority 2017, dated 2023).

Some results are limits rather than exact numbers.

The target of assay [1] is T1, ligand binding domain of human FXR (Homo sapiens, UniProt Q96RI1).
T1 construct: purchased Thermofisher (LanthaScreen) PV4833
T1 sequence (Q96RI1 262-486 limits assumed): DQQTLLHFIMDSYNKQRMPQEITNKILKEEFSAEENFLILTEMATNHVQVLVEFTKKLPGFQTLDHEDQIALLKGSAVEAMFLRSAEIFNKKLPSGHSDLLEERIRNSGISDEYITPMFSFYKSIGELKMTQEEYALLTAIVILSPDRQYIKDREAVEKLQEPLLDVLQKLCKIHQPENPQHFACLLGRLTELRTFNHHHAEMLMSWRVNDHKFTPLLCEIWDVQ
Put plainly: biochemical. The conditions noted are these: for Emax: extent of activation relative to GW4064, read-out: Ligand Binding % Efficacy; for EC50: −log EC50, concentration required to produce 50% activation, FRET 520 nm/495 nm, 1 hour at room temperature, read-out: Ligand Binding pEC50 (converted). On the procedure:
The affinity of FXR ligands for the ligand binding domain of FXR was determined using a commercially available human FXR ligand binding assay (LanthaScreen, Thermofisher Cat #PV4833). […] Binding of FXR ligands to the FXR ligand binding domain promotes binding of the fluorescein-labelled SRC2-2 peptide. This causes a FRET signal between the terbium-labelled anti-GST antibody and the fluorescein-labelled SRC peptide which are both bound to the FXR ligand binding domain.
Test compounds are dissolved in DMSO and a 3-fold serial dilution series is generated, then further diluted into assay buffer. The compounds are mixed with 5 nM GST-tagged FXR ligand binding domain, 5 nM Tb-labelled anti-GST antibody and 500 nM fluorescein-labelled SRC2-2 peptide in a pH7.4 buffer. The reaction is incubated at room temperature for 1 hour, then the FRET signal is measured as the ratio of the 520 nm/495 nm emission following excitation at 340 nm. The change in FRET signal is plotted against the test article concentration and fit to a 3-parameter logistical equation.

Assay [2] addresses T2, human Farnesoid X receptor ligand-binding domain/Gal4 DNA binding domain chimera (Homo sapiens, UniProt Q96RI1).
T2 construct: host or cells: FXR-UAS-bla HEK 293T (CellSensor UAS-bla HEK 293T)
T2 sequence (Q96RI1 262-486 limits assumed): T1 sequence (Q96RI1 262-486 limits assumed)
Put plainly: Cell-based assay of FXR activation (FXR-UAS-bla HEK 293T beta-lactamase reporter). The conditions noted are these: for Emax: HEK-293T, read-out: Cellular % Efficacy. On the procedure: FXR activation was measured using a cell line and procedure obtained from Life Technologies (Cat #K1691). […] Activation of FXR by bound ligands results in transcriptional activation of the beta-lactamase reporter gene, which is detected via assay of beta-lactamase activity.
Cells are harvested and diluted into assay medium containing phenol red-free DMEM supplemented with 2% Charcoal-stripped FBS, pyruvate, non-essential amino acids. Cells are then transferred to a 384 well assay plate. Test compounds are dissolved in DMSO and a 3-fold serial dilution series is generated, then further diluted into assay medium. Compounds in assay medium are added to cells in the 384 well plate and allowed to incubate 16 h at 37 C in the presence of 5% CO2.
A FRET-based […] (CCF4) is loaded into cells as its acetomethoxy ester. Intracellular esterases liberate free CCF4, a cephalosporin core linking 7-hydroxycoumarin to fluorescein. In the presence of beta-lactamase activity produced in the presence of FXR agonists, cleavage of CCF4 spatially separates the two dyes and disrupts FRET, so that exciting the coumarin at 409 nm now produces a blue fluorescence signal at 447 nm. The change in FRET signal is plotted against the test compound concentration and fit to a 3-parameter logistical equation.

As to `O=C(NS(=O)(=O)C1CCOCC1)c1ccc(N2C[C@@H]3C[C@H]2C[C@H]3OCc2c(C3CC3)cnn2-c2c(Cl)cccc2Cl)cc1` [Compound I-20, 4-[(1S,4S,5R)-5-{[4-cyclopropyl-1-(2,6-dichlorophenyl)-1H-pyrazol-5-yl]methoxy}-2-azabicyclo[2.2.1]heptan-2-yl]-N-(oxane-4-sulfonyl)benzamide], in assay [1], the Emax turned out to be 147% and the EC50 was 3.16 nM. In assay [2], the EC50 was 0.794 nM and the Emax turned out to be 102%.
Regarding `O=C(NS(=O)(=O)C1CCOC1)c1ccc(N2C[C@@H]3C[C@H]2C[C@H]3OCc2c(C3CC3)cnn2-c2c(Cl)cccc2Cl)cc1` (stereo partly drawn) [Compound I-23, 4-((1S,4S,5R)-5-((4-cyclopropyl-1-(2,6-dichlorophenyl)-1H-pyrazol-5-yl)methoxy)-2-azabicyclo[2.2.1]heptan-2-yl)-N-((tetrahydrofuran-3-yl)sulfonyl)benzamide], in assay [1], the Emax stood at 164% and the EC50 is 3.98 nM. Further, in assay [2], the EC50 is 2.51 nM and the Emax turned out to be 111%.
As to `O=C(NS(=O)(=O)CC1CCOC1)c1ccc(N2C[C@@H]3C[C@H]2C[C@H]3OCc2c(C3CC3)cnn2-c2c(Cl)cccc2Cl)cc1` (stereo partly drawn) [Compound I-24, 4-((1S,4S,5R)-5-((4-cyclopropyl-1-(2,6-dichlorophenyl)-1H-pyrazol-5-yl)methoxy)-2-azabicyclo[2.2.1]heptan-2-yl)-N-(((tetrahydrofuran-3-yl)methyl)sulfonyl)benzamide], in assay [1], the Emax stood at 164% and the EC50 was 3.16 nM. In assay [2], the EC50 is 2.51 nM and the Emax was 107%.
For `O=C(O)c1cc(F)c2nc(N3C[C@@H]4C[C@H]3C[C@H]4OCc3c(C4CC4)cnn3-c3c(Cl)cccc3Cl)sc2c1` [Compound I-30, 2-[(1S,4S,5R)-5-{[4-cyclopropyl-1-(2,6-dichlorophenyl)-1H-pyrazol-5-yl]methoxy}-2-azabicyclo[2.2.1]heptan-2-yl]-4-fluoro-1,3-benzothiazole-6-carboxylic acid] the same measures were 151%, 15.8 nM, 1.58 nM and 106%.
Consider `O=C(O)c1cc(OC2CC2)c2nc(N3C[C@@H]4C[C@H]3C[C@H]4OCc3c(C4CC4)cnn3-c3c(Cl)cccc3Cl)sc2c1` [Compound I-31, 4-cyclopropoxy-2-[(1S,4S,5R)-5-{[4-cyclopropyl-1-(2,6-dichlorophenyl)-1H-pyrazol-5-yl]methoxy}-2-azabicyclo[2.2.1]heptan-2-yl]-1,3-benzothiazole-6-carboxylic acid], for which the Emax in assay [1] was 116%; in assay [2], 110%. Also, the EC50 in assay [1] was 1.58 nM; in assay [2], 0.2 nM.
`O=C(O)c1cc(C2CCOCC2)c2nc(N3C[C@@H]4C[C@H]3C[C@H]4OCc3c(C4CC4)cnn3-c3c(Cl)cccc3Cl)sc2c1` [Compound I-32, 2-[(1S,4S,5R)-5-{[4-cyclopropyl-1-(2,6-dichlorophenyl)-1H-pyrazol-5-yl]methoxy}-2-azabicyclo[2.2.1]heptan-2-yl]-4-(oxan-4-yl)-1,3-benzothiazole-6-carboxylic acid]: in assay [1], the Emax came to 128% and the EC50 is 2.51 nM. Further, in assay [2], the EC50 is 1 nM and the Emax turned out to be 101%.
In the same order, the values of `O=C(O)CCc1ccc(N2C[C@@H]3C[C@H]2C[C@H]3OCc2c(C3CC3)cnn2-c2c(Cl)cccc2Cl)c(F)c1` [Compound I-33, 3-{4-[(1S,4S,5R)-5-{[4-cyclopropyl-1-(2,6-dichlorophenyl)-1H-pyrazol-5-yl]methoxy}-2-azabicyclo[2.2.1]heptan-2-yl]-3-fluorophenyl}propanoic acid] are 132%, 39.8 nM, 3.98 nM and 99%.
Take `O=C(O)CCc1ccc(N2C[C@@H]3C[C@H]2C[C@H]3OCc2c(C3CC3)cnn2-c2c(Cl)cccc2Cl)cc1F` [Compound I-34, 3-{4-[(1S,4S,5R)-5-{[4-cyclopropyl-1-(2,6-dichlorophenyl)-1H-pyrazol-5-yl]methoxy}-2-azabicyclo[2.2.1]heptan-2-yl]-2-fluorophenyl}propanoic acid]: in assay [1], the Emax is 144% and the EC50 was 100 nM. In assay [2], the EC50 was 10 nM and the Emax stood at 98%.
For `O=C(O)c1ccc(N2C[C@@H]3C[C@H]2C[C@H]3OCc2c(-c3c(Cl)cccc3Cl)cnn2C2CC2)cc1` [Compound I-41, 4-[(1S,4S,5R)-5-{[1-cyclopropyl-4-(2,6-dichlorophenyl)-1H-pyrazol-5-yl]methoxy}-2-azabicyclo[2.2.1]heptan-2-yl]benzoic acid] the same measures were 96%, 316 nM, 794 nM and 117%.
For `O=C(O)c1ccc(N2C[C@@H]3C[C@H]2C[C@H]3OCc2c(-c3c(Cl)cccc3Cl)cnn2C2CC2)cc1F` [Compound I-42, 4-[(1S,4S,5R)-5-{[1-cyclopropyl-4-(2,6-dichlorophenyl)-1H-pyrazol-5-yl]methoxy}-2-azabicyclo[2.2.1]heptan-2-yl]-2-fluorobenzoic acid] the same measures were 102%, 251 nM, 398 nM and 110%.
For the molecule `O=C(O)CCc1ccc(N2C[C@@H]3C[C@H]2C[C@H]3OCc2c(-c3c(Cl)cccc3Cl)cnn2C2CC2)cc1` [Compound I-43, 3-{4-[(1S,4S,5R)-5-{[1-cyclopropyl-4-(2,6-dichlorophenyl)-1H-pyrazol-5-yl]methoxy}-2-azabicyclo[2.2.1]heptan-2-yl]phenyl}propanoic acid], the EC50 is less than 316 nM in assay [1] and less than 31.6 nM in assay [2].
In the case of `O=C(O)CCc1ccc(N2C[C@@H]3C[C@H]2C[C@H]3OCc2c(-c3c(Cl)cccc3Cl)cnn2C2CC2)c(F)c1` [Compound I-44, 3-{4-[(1S,4S,5R)-5-{[1-cyclopropyl-4-(2,6-dichlorophenyl)-1H-pyrazol-5-yl]methoxy}-2-azabicyclo[2.2.1]heptan-2-yl]-3-fluorophenyl}propanoic acid], in assay [1], the Emax turned out to be 96% and the EC50 was less than 631 nM. The EC50 in assay [2] was less than 31.6 nM.
As for `CS(=O)(=O)CCNC(=O)c1ccc(N2C[C@@H]3C[C@H]2C[C@H]3OCc2c(-c3c(Cl)cccc3Cl)cnn2C2CC2)cc1F` [Compound I-45, 4-[(1S,4S,5R)-5-{[1-cyclopropyl-4-(2,6-dichlorophenyl)-1H-pyrazol-5-yl]methoxy}-2-azabicyclo[2.2.1]heptan-2-yl]-2-fluoro-N-(2-methanesulfonylethyl)benzamide], in assay [1], the Emax was 57% and the EC50 is 398 nM. In addition, in assay [2], the EC50 is 1000 nM and the Emax came out at 92%.
Turning to `O=C(NS(=O)(=O)C1CCOCC1)c1ccc(N2C[C@@H]3C[C@H]2C[C@H]3OCc2c(-c3c(Cl)cccc3Cl)cnn2C2CC2)cc1` [Compound I-46, 4-[(1S,4S,5R)-5-{[1-cyclopropyl-4-(2,6-dichlorophenyl)-1H-pyrazol-5-yl]methoxy}-2-azabicyclo[2.2.1]heptan-2-yl]-N-(oxane-4-sulfonyl)benzamide], in assay [1], the Emax came to 170% and the EC50 was 100 nM. This molecule also yielded an EC50 in assay [2] of less than 31.6 nM.
With `O=C(O)c1cc(F)c2nc(N3C[C@@H]4C[C@H]3C[C@H]4OCc3c(-c4c(Cl)cccc4Cl)cnn3C3CC3)sc2c1` [Compound I-47, 2-[(1S,4S,5R)-5-{[1-cyclopropyl-4-(2,6-dichlorophenyl)-1H-pyrazol-5-yl]methoxy}-2-azabicyclo[2.2.1]heptan-2-yl]-4-fluoro-1,3-benzothiazole-6-carboxylic acid], in assay [1], the Emax was found to be 62% and the EC50 was 251 nM. Also, in assay [2], the EC50 is 398 nM and the Emax turned out to be 94%.
